Where two headings read alike, the source gives them in different places.
Tests used:
A549 = assay: Cell proliferation-inhibiting activity (ATP in viable cells, CellTiter-Glo), A549; type: cell-based, human; details: A549, 96 h, read-out: A549 IC50
BRAF = target: T1, BRAF (Homo sapiens, UniProt P15056); assay: BRAF-inhibiting activity, time-resolved fluorescence-fluorescence resonance energy transfer assay; type: biochemical
T1 construct: purchased Eurofins Genomics KK; (BRAF); Thermo Fisher Scientific Inc. (MEK1)
Experimental: The BRAF-inhibiting activity of the compounds listed in Table 3 below was evaluated by the time-resolved fluorescence-fluorescence resonance energy transfer assay as described below.

MEK1 = target: T2, MEK1 (Homo sapiens, UniProt Q02750); assay: MEK1-inhibiting activity, fluorescent polarization method (CRAF/MEK1/ERK2 cascade, IMAP); type: biochemical; details: Table 3; read-out: MEK1 IC50
T2 construct: purchased Thermo Fisher Scientific Inc. (MEK1, CRAF); Carna Biosciences, Inc. (ERK2)
Experimental: The MEK1-inhibiting activity of the compounds listed in Table 3 below were evaluated by the fluorescent polarization method as described below.

[1] = Human liver microsome stability; type: in vitro ADME; details: human liver microsomes, pH 7.4
NCI-H2122 = assay: Cell proliferation-inhibiting activity (ATP in viable cells, CellTiter-Glo), NCI-H2122; type: cell-based, human; details: NCI-H2122, 96 h, read-out: NCI-H2122 IC50
Calu-6 = assay: Cell proliferation-inhibiting activity (ATP in viable cells, CellTiter-Glo), Calu-6; type: cell-based, human; details: Calu-6, 96 h, read-out: Calu-6 IC50
[2] = human lung cancer cells, 4 days

T1 sequence (P15056 417-766 limits assumed): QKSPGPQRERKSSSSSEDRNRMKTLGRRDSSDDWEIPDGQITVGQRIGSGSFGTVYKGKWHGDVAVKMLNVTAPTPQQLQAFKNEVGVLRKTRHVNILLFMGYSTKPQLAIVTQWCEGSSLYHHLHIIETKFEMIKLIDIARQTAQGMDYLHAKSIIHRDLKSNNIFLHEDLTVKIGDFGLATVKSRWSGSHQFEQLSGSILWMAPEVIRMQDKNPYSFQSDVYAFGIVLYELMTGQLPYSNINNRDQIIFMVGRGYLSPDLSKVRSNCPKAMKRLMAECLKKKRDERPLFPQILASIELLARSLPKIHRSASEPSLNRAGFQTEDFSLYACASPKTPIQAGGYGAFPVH
T2 sequence (Q02750 whole entry): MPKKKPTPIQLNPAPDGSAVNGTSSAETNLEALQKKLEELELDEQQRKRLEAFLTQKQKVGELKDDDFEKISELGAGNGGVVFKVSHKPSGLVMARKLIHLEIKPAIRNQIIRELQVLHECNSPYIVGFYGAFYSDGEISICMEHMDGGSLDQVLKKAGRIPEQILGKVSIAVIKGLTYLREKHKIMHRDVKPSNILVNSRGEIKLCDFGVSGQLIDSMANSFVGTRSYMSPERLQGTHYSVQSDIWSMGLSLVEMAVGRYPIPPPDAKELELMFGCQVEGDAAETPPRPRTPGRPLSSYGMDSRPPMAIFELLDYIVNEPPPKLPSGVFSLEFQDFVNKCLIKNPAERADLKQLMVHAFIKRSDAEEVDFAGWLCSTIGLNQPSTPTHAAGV

Row | Structure (SMILES) | IC50 (A549; [2]) | IC50 (BRAF; read-out: BRAF IC50; Table 3) | IC50 (MEK1) | microsomal CLint at 0.99 µM [1] | IC50 (NCI-H2122; [2]) | IC50 (Calu-6; [2]) | IC50 (A549; Homo sapiens) | IC50 (BRAF; Table 3; read-out: BRAF IC50) | IC50 (NCI-H2122; Homo sapiens) | IC50 (Calu-6; Homo sapiens)
1 | CCNS(=O)(=O)Nc1nccc(Cc2cc(C(=O)NC3CC3)c(Nc3ccc(I)cc3F)c(F)c2F)c1F [Compound A-4, N-cyclopropyl-5-[[2-(ethylsulfamoylamino)-3-fluoropyridin-4-yl]methyl]-3,4-difluoro-2-(2-fluoro-4-iodoanilino)benzamide] | 5 nM | 2 nM | 17 nM | 21 µL/min/mg | 1 nM | 7 nM |  |  |  | 
2 | O=C(NC1CC1)c1cc(Cc2ccnc(NS(=O)(=O)NC3CC3)c2F)c(F)c(F)c1Nc1ccc(I)cc1F [Compound A-5, N-Cyclopropyl-5-[[2-(cyclopropylsulfamoylamino)-3-fluoropyridin-4-yl]methyl]-3,4-difluoro-2-(2-fluoro-4-iodoanilino)benzamide] | 5 nM | 5 nM | 10 nM | 36 µL/min/mg | 1 nM | 12 nM |  |  |  | 
3 | O=C(NC1CC1)c1cc(Cc2ccnc(NS(=O)(=O)NCCF)c2F)c(F)c(F)c1Nc1ccc(I)cc1F [Compound A-6, N-cyclopropyl-3,4-difluoro-5-[[3-fluoro-2-(2-fluoroethylsulfamoylamino)pyridin-4-yl]methyl]-2-(2-fluoro-4-iodoanilino)benzamide] | 17 nM | 10 nM | 12 nM | 20 µL/min/mg | 3 nM | 19 nM |  |  |  | 
4 | CNC(=O)c1cc(Cc2ccnc(NS(=O)(=O)NC)c2F)c(F)c(F)c1Nc1ccc(I)cc1F [Compound A-7, 3,4-Difluoro-2-(2-fluoro-4-iodoanilino)-5-[[3-fluoro-2-(methylsulfamoylamino)pyridin-4-yl]methyl]-N-methylbenzamide] | 2 nM | 5 nM | 18 nM | 28 µL/min/mg | 1 nM | 18 nM |  |  |  | 
5 | CNS(=O)(=O)Nc1nccc(Cc2cc(C(=O)NOC(C)(C)C)c(Nc3ccc(I)cc3F)c(F)c2F)c1F [Compound A-8, 3,4-difluoro-2-(2-fluoro-4-iodoanilino)-5-[[3-fluoro-2-(methylsulfamoylamino)pyridin-4-yl]methyl]-N-[(2-methylpropan-2-yl)oxy]benz amide] | 0.4 nM | 4 nM | 3 nM | 33 µL/min/mg | 0.1 nM | 2 nM |  |  |  | 
6 | COCCNS(=O)(=O)Nc1nccc(Cc2cc(C(=O)NOC(C)(C)C)c(Nc3ccc(I)cc3F)c(F)c2F)c1F [Compound A-9, 3,4-Difluoro-2-(2-fluoro-4-iodoanilino)-5-[[3-fluoro-2-(2-methoxyethylsulfamoylamino)pyridin-4-yl]methyl]-N-[(2-methylpropan-2-yl)oxy]be nzamide] | 2 nM | 4 nM | 4 nM | 56 µL/min/mg | 0.4 nM | 7 nM |  |  |  | 
7 | CC(C)ONC(=O)c1cc(Cc2ccnc(NS(=O)(=O)NC3(C)CCC3)c2F)c(F)c(F)c1Nc1ccc(I)cc1F [Compound A-12, 3,4-Difluoro-2-(2-fluoro-4-iodoanilino)-5-[[3-fluoro-2-[(1-methylcyclobutyl)sulfamoylamino]pyridin-4-yl]methyl]-N-propan-2-yloxybenzamide] | 6 nM | 6 nM | 13 nM | 121 µL/min/mg | 5 nM | 18 nM |  |  |  | 
8 | CNS(=O)(=O)Nc1nccc(Cc2cc(C(=O)NOC)c(Nc3ccc(I)cc3F)c(F)c2F)c1F [Compound A-13, 3,4-difluoro-2-(2-fluoro-4-iodoanilino)-5-[[3-fluoro-2-(methylsulfamoylamino)pyridin-4-yl]methyl]-N-methoxybenzamide] | 1 nM | 3 nM | 1 nM | 31 µL/min/mg | 0.3 nM | 3 nM |  |  |  | 
9 | COCCNS(=O)(=O)Nc1nccc(Cc2cc(C(=O)NOC)c(Nc3ccc(I)cc3F)c(F)c2F)c1F [Compound A-14, 3,4-Difluoro-2-(2-fluoro-4-iodoanilino)-5-[[3-fluoro-2-(2-methoxyethylsulfamoylamino)pyridin-4-yl]methyl]-N-methoxybenzamide] | 11 nM | 3 nM | 2 nM | 39 µL/min/mg | 1 nM | 27 nM |  |  |  | 
10 | CONC(=O)c1cc(Cc2ccnc(NS(=O)(=O)NC3(C)CCC3)c2F)c(F)c(F)c1Nc1ccc(I)cc1F [Compound A-15, 3,4-difluoro-2-(2-fluoro-4-iodoanilino)-5-[[3-fluoro-2-[(1-methylcyclobutyl)sulfamoylamino]pyridin-4-yl]methyl]-N-methoxybenzamide] | 2 nM | 4 nM | 8 nM | 57 µL/min/mg | 1 nM | 5 nM |  |  |  | 
11 | CNS(=O)(=O)Nc1nccc(Cc2cc(C(N)=O)c(Nc3ccc(SC)cc3F)c(F)c2F)c1F [Compound A-18, 3,4-difluoro-5-[[3-fluoro-2-(methylsulfamoylamino)pyridin-4-yl]methyl]-2-(2-fluoro-4-methylsulfanylanilino)benzamide] |  |  | 8 nM | 53 µL/min/mg |  |  | 5 nM | 4 nM | 2 nM | 7 nM
12 | COCC(C)(C)NS(=O)(=O)Nc1nccc(Cc2cc(C(N)=O)c(Nc3ccc(I)cc3F)c(F)c2F)c1F [Compound A-24, 3,4-Difluoro-2-(2-fluoro-4-iodoanilino)-5-[[3-fluoro-2-[(1-methoxy-2-methylpropan-2-yl)sulfamoylamino]pyridin-4-yl]methyl]benzamide] | 11 nM | 3 nM | 129 nM | 48 µL/min/mg | 4 nM | 51 nM |  |  |  | 
13 | CNS(=O)(=O)Nc1nccc(Cc2cc(C(N)=O)c(Nc3ccc(I)cc3F)c(F)c2F)c1F [Compound A-25, 3,4-difluoro-2-(2-fluoro-4-iodoanilino)-5-[[3-fluoro-2-(methylsulfamoylamino)pyridin-4-yl]methyl]benzamide] | 0.5 nM | 2 nM | 5 nM | 7 µL/min/mg | 0.2 nM | 2 nM |  |  |  | 
14 | NC(=O)c1cc(Cc2ccnc(NS(=O)(=O)NC3CC3)c2F)c(F)c(F)c1Nc1ccc(I)cc1F [Compound A-30, 5-[[2-(cyclopropylsulfamoylamino)-3-fluoropyridin-4-yl]methyl]-3,4-difluoro-2-(2-fluoro-4-iodoanilino)benzamide] | 3 nM | 8 nM | 9 nM | 10 µL/min/mg | 1 nM | 8 nM |  |  |  | 
15 | CC(C)NS(=O)(=O)Nc1nccc(Cc2cc(C(N)=O)c(Nc3ccc(I)cc3F)c(F)c2F)c1F [Compound A-31, 3,4-difluoro-2-(2-fluoro-4-iodoanilino)-5-[[3-fluoro-2-(propan-2-ylsulfamoylamino)pyridin-4-yl]methyl]benzamide] | 20 nM | 6 nM | 49 nM | 9 µL/min/mg | 7 nM | 31 nM |  |  |  | 
16 | COCCNS(=O)(=O)Nc1nccc(Cc2cc(C(N)=O)c(Nc3ccc(I)cc3F)c(F)c2F)c1F [Compound A-33, 3,4-difluoro-2-(2-fluoro-4-iodoanilino)-5-[[3-fluoro-2-(2-methoxyethylsulfamoylamino)pyridin-4-yl]methyl]benzamide] | 27 nM | 2 nM | 10 nM | 6 µL/min/mg | 8 nM | 68 nM |  |  |  | 
17 | CC(C)CNS(=O)(=O)Nc1nccc(Cc2cc(C(N)=O)c(Nc3ccc(I)cc3F)c(F)c2F)c1F [Compound A-34, 3,4-difluoro-2-(2-fluoro-4-iodoanilino)-5-[[3-fluoro-2-(2-methylpropylsulfamoylamino)pyridin-4-yl]methyl]benzamide] | 27 nM | 3 nM | 81 nM | 17 µL/min/mg | 12 nM | 79 nM |  |  |  | 
18 | CC1(NS(=O)(=O)Nc2nccc(Cc3cc(C(N)=O)c(Nc4ccc(I)cc4F)c(F)c3F)c2F)CCC1 [Compound A-35, 3,4-difluoro-2-(2-fluoro-4-iodoanilino)-5-[[3-fluoro-2-[(1-methylcyclobutyl)sulfamoylamino]pyridin-4-yl]methyl]benzamide] | 21 nM | 28 nM | 66 nM | 15 µL/min/mg | 4 nM | 34 nM |  |  |  | 
19 | NC(=O)c1cc(Cc2ccnc(NS(=O)(=O)NCC3CC3)c2F)c(F)c(F)c1Nc1ccc(I)cc1F [Compound A-36] | 26 nM | 5 nM | 74 nM | 18 µL/min/mg | 17 nM | 61 nM |  |  |  | 
20 | CC(C)(C)NS(=O)(=O)Nc1nccc(Cc2cc(C(N)=O)c(Nc3ccc(I)cc3F)c(F)c2F)c1F [Compound A-37, 5-[[2-(tert-Butylsulfamoylamino)-3-fluoropyridin-4-yl]methyl]-3,4-difl uoro-2-(2-fluoro-4-iodoanilino)benzamide] | 21 nM | 7 nM | 50 nM | 10 µL/min/mg | 7 nM | 26 nM |  |  |  | 

From patent publication EP4725941A1, “ARYLAMIDE DERIVATIVE HAVING ANTITUMOR ACTIVITY” (priority 2020, dated 2021)
